Measurements as given in US20250179436A1, “HUMAN FATTY-LIVER MODEL CELLS” (PhoenixBio Co., Ltd., priority 2019, published 2025).

Legend:
[1] = test system: PXB-cells; assay: Fat droplets in PXB-cells cultured in medium with or without DMSO (photomicrograph); format: cell-based, human; conditions: 2% DMSO, PXB-cells cultured 5 days
Description: The following day of seeding, medium A was removed. Instead, 500 μL of medium B (DMSO (+)) or medium C (DMSO (−)) was added. The plate was gently placed in an incubator (37° C., 5% CO2) and the cells were cultured for 5 days. After completion of culture, an image of the cells was taken by a photomicrographic camera. Then, the culture supernatant was recovered and subjected to analysis for lipoprotein in the culture supernatant described below.

[2] = test system: PXB-cells; assay: Total neutral fat of lipoproteins in culture supernatant of PXB-cells cultured with or without DMSO; format: cell-based, human; conditions: 2% DMSO, PXB-cells cultured 5 days
Description: The following day of seeding, medium A was removed. Instead, 500 μL of medium B (DMSO (+)) or medium C (DMSO (−)) was added. The plate was gently placed in an incubator (37° C., 5% CO2) and the cells were cultured for 5 days. After completion of culture, an image of the cells was taken by a photomicrographic camera. Then, the culture supernatant was recovered and subjected to analysis for lipoprotein in the culture supernatant described below. Lipoproteins contained in the culture supernatants of PXB-cells, HepG2 cells and HuH7 cells were analyzed by using LipoSEARCH (registered trademark) method (Skylight Biotech, Inc.). After completion of the culture mentioned above, the medium used in the culture was removed and 500 μL of medium D for analysis was added. The culture plate was gently placed in an incubator (37° C., 5% CO2) and the cells were cultured for 2 days. Thereafter, the culture supernatant was recovered, lipoproteins contained in the culture supernatant (80 μL) were fractionated into 4 types of subgroups, CM, VLDL, LDL and HDL fractions, by gel filtration HPLC. Cholesterol and neutral fat (triglyceride) contained in individual fractions were quantified by online enzyme reactions. […]

[3] = test system: PXB-cells; assay: Screening test: total cholesterol and total neutral fat (triglyceride) in culture supernatant of PXB-cells (LipoSEARCH); format: cell-based, human; conditions: lomitapide 1, 10, 100 μM, 2 days; PXB-cells pre-cultured 12 days in medium B (DMSO (+)); vs ethanol control
Description: Lipoproteins contained in the culture supernatants of PXB-cells, HepG2 cells and HuH7 cells were analyzed by using LipoSEARCH (registered trademark) method (Skylight Biotech, Inc.).
After completion of the culture mentioned above, the medium used in the culture was removed and 500 μL of medium D for analysis was added. The culture plate was gently placed in an incubator (37° C., 5% CO2) and the cells were cultured for 2 days. Thereafter, the culture supernatant was recovered, lipoproteins contained in the culture supernatant (80 μL) were fractionated into 4 types of subgroups, CM, VLDL, LDL and HDL fractions, by gel filtration HPLC. Cholesterol and neutral fat (triglyceride) contained in individual fractions were quantified by online enzyme reactions. […]
Each test substance was suspended with ethanol and added in a predetermined amount to a PXB-cell culture, gently placed in an incubator (37° C., 5% CO2) and cultured for 2 days. After completion of culture, the total cholesterol and total neutral fat (triglyceride) in culture supernatant and in cells were measured in accordance with the methods described in the sections “Analysis of lipoprotein in culture supernatant” and “Analysis of lipoprotein in cells”. […]

[4] = test system: PXB-cells; assay: Screening test: total cholesterol and total neutral fat (triglyceride) in PXB-cells (Cholestest); format: cell-based, human; conditions: lomitapide 1, 10, 100 μM, 2 days; PXB-cells pre-cultured 12 days in medium B (DMSO (+)); vs ethanol control
Description: Triglyceride in cells was measured by use of Cholestest (registered trademark) TG (Sekisui Medical Co., Ltd.) in accordance with the instruction by the manufacturer. More specifically, the cells were washed with PBS, and then, completely dewatered (stored at −80° C. until measurement). To each well containing the cells, 200 μL of TG enzyme solution (1) was added. A reaction was allowed to proceed while keeping the cells warm at 37° C. for 10 minutes (free glycerol was removed). Then, the cells were torn away by pipetting, transferred to a centrifuge tube and centrifuged at 10,000 rpm×10 minutes. Then, the supernatant (7.5 μL) was transferred to a 96-well microplate. […] The resultant reaction product was subjected to measurement of absorbance at 550 nm. The content of triglyceride was calculated based on HDL-C180A as the reference (triglyceride concentration of HDL-C180A was 52.26 mg/dL).
Intracellular cholesterol was measured by use of Cholestest (registered trademark) CHO (Sekisui Medical Co., Ltd.) in accordance with the instruction by the manufacturer. […] The resultant reaction product was subjected to measurement of absorbance at 550 nm. The content of cholesterol was calculated based on HDL-C180A as the standard ([…] concentration of HDL-C180A was 152.67 mg/dL). […]

[5] = test system: PXB-cells; assay: Human albumin content in culture supernatant of PXB-cells (immunoturbidimetric method), toxicity index; format: cell-based; conditions: 2 days

With C[S+](C)[O-] [DMSO, dimethyl sulfoxide] the “number of fat droplets, medium B (DMSO (+)) compared to medium C (DMSO (−))” value [1] was “about double” and the “secretion of total neutral fat (triglyceride) in lipoproteins, medium B (DMSO (+)) relative to medium C (DMSO (−))” value [2] was “about 9 times”.
With O=C(NC1CCN(CCCCC2(C(=O)NCC(F)(F)F)c3ccccc3-c3ccccc32)CC1)c1ccccc1-c1ccc(C(F)(F)F)cc1 [lomitapide] the “total cholesterol content in the culture supernatants” value [3] was “significantly decreased”, the “total neutral fat (triglyceride) content in the culture supernatants” value [3] was “significantly decreased” and the “total cholesterol content in the cells” value [4] was “no significant decrease”. The “total neutral fat (triglyceride) content in the cells” value [4] was “no significant decrease”, the “content of human albumin in the culture supernatant” value ([5]; lomitapide 1, 10, 100 μM, PXB-cells in medium B (DMSO (+))) was “decreased depending on the addition amount” and the “toxicity (based on human albumin content)” value ([5]; lomitapide, high amount (1-100 μM tested), PXB-cells) was “toxic”.
CCC(C)(C)C(=O)O[C@H]1C[C@@H](C)C=C2C=C[C@H](C)[C@H](CC[C@@H]3C[C@@H](O)CC(=O)O3)[C@H]21 [simvastatin] was tested, and the “human albumin content in the culture supernatant” value ([5]; simvastatin 0.1, 1, 10 μM, PXB-cells in medium B (DMSO (+))) was “no significant decrease”.
